This note sets out measurements from ChEMBL document CHEMBL1201862, “PubChem BioAssay data set” (2004).

Among the test systems are SW-620; SK-OV-3; HL-60; MDA-MB-435; MDA-N; T47D; Hs-578T; MDA-MB-231; SK-MEL-2; SF-268; OVCAR-3; DU-145; SNB-75; RPMI-8226; MCF7; U-251; PC-3; ACHN; SK-MEL-5; NCI-H522.
Assay in all cases: NCI anticancer screen, dose series, 48 h

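A five-concentration, 48-hour dose response in 96-well plates underlies each endpoint, interpolated linearly between surrounding concentrations. GI50 = concentration required for 50% inhibition of growth.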 The source made the active and inactive calls. Cut-off read from the data, not from the text of the source: active = GI50 up to about 1.1 µM and inactive = higher.

Regarding `N#Cc1c(NCCc2ccc(F)cc2)c2ccccc2n2c1nc1ccccc12`, the GI50 was 75 µM (inactive) with SW-620; 20.1 µM (inactive) in the test with SK-OV-3; > 100 µM (inactive) with HL-60; 73.5 µM (inactive) in the test on MDA-MB-435; 21.3 µM (inactive) with MDA-N; 22.4 µM (inactive) with T47D. In addition, the GI50 was 4.33 µM (inactive) in the test with Hs-578T; 10 µM (inactive) with MDA-MB-231; 36.9 µM (inactive) in the test on SK-MEL-2; 7.41 µM (inactive) in the test with SF-268; 13.9 µM (inactive) with OVCAR-3; 19.6 µM (inactive) in the test on DU-145. The GI50 in the test on SNB-75 was 6.32 µM (inactive); in the test on RPMI-8226, 46.8 µM (inactive); with MCF7, 6.34 µM (inactive); in the test on U-251, 11.3 µM (inactive); in the test on PC-3, 13 µM (inactive); in the test on ACHN, 9.18 µM (inactive).

`CCCC1C2=C(C(=O)OC2=O)C2C(CC)CC3=C(C(=O)OC3=O)C12` (configuration not stated): the GI50 in the test on SW-620, in the test with SK-OV-3, with HL-60, in the test on MDA-MB-435, in the test with MDA-N and in the test on SK-MEL-5 was > 100 µM (inactive) each time. The GI50 was > 100 µM (inactive) in the test on T47D; 18.4 µM (inactive) in the test with Hs-578T; > 100 µM (inactive) with MDA-MB-231; > 100 µM (inactive) with SK-MEL-2; > 100 µM (inactive) with SF-268; > 100 µM (inactive) in the test with OVCAR-3. Further, the GI50 in the test with DU-145, in the test on SNB-75, with RPMI-8226, with MCF7, with U-251 and in the test with PC-3 was > 100 µM (inactive) in each case. The GI50 with ACHN is > 100 µM (inactive).

`Cc1c(N2C(=O)/C(=C/c3ccc(N(CCC#N)CCC#N)cc3)N=C2c2ccccc2)c(=O)n(-c2ccccc2)n1C`: the GI50 was > 100 µM (inactive) in the test with SW-620; > 100 µM (inactive) in the test with SK-OV-3; 96.2 µM (inactive) in the test with HL-60; > 100 µM (inactive) in the test on MDA-MB-435; > 100 µM (inactive) in the test with MDA-N; > 100 µM (inactive) with SK-MEL-5. Moreover, the GI50 with T47D, with Hs-578T, with MDA-MB-231, in the test with SK-MEL-2, in the test on SF-268 and in the test with OVCAR-3 was > 100 µM (inactive) throughout. In addition, the GI50 in the test on DU-145, in the test with RPMI-8226, in the test with MCF7 and in the test with U-251 was > 100 µM (inactive) throughout.

With `O=C1/C(=C/c2cccc([N+](=O)[O-])c2)N=C(c2ccccc2)N1c1nc2c(Cl)cc(Cl)cc2s1`, the GI50 in the test with SW-620 is 25.5 µM (inactive); in the test on SK-OV-3 it was 31.2 µM (inactive); with HL-60, 21.7 µM (inactive); in the test with MDA-MB-435, 20.8 µM (inactive); in the test with MDA-N it was 18.4 µM (inactive); in the test with SK-MEL-5 it was 16.9 µM (inactive). The GI50 in the test on T47D was 24.9 µM (inactive); in the test with Hs-578T, 35.8 µM (inactive); with MDA-MB-231, 29.4 µM (inactive); in the test with SK-MEL-2, 21.4 µM (inactive); in the test on SF-268, 42.6 µM (inactive); in the test with OVCAR-3, 17.1 µM (inactive). Further, the GI50 in the test on DU-145 was 27 µM (inactive); with RPMI-8226, 31.2 µM (inactive); in the test on MCF7, 23.9 µM (inactive); in the test on U-251, 17.8 µM (inactive); in the test with PC-3 it was 24 µM (inactive); in the test on ACHN, 27.7 µM (inactive).

Regarding `C#CC1(O)CCCCCCCCC2(CCCCCCCC1)OCCO2`, the GI50 in the test with SW-620 is 18.8 µM (inactive); in the test with SK-OV-3, 18.7 µM (inactive); with HL-60 it was 13.5 µM (inactive); in the test with MDA-MB-435, 19.4 µM (inactive); with MDA-N, 20.9 µM (inactive); with SK-MEL-5, 19.2 µM (inactive). Also, the GI50 in the test with T47D was 15.5 µM (inactive); in the test on Hs-578T, 17.8 µM (inactive); with SK-MEL-2 it was 13.7 µM (inactive); in the test on SF-268, 17.3 µM (inactive); in the test with OVCAR-3, 15.4 µM (inactive); with NCI-H522, 2.56 µM (inactive). Besides, the GI50 with DU-145 was 17.3 µM (inactive); with RPMI-8226, 0.414 µM (active); in the test on MCF7, 20.3 µM (inactive); with U-251, 17.1 µM (inactive); in the test on PC-3, 12.8 µM (inactive); with ACHN it was 13.8 µM (inactive).

`CCc1nnc2sc(-c3ccc(-c4ccc(Cl)cc4Cl)o3)nn12`: the GI50 with SW-620 was > 100 µM (inactive); with SK-OV-3 it was 43.1 µM (inactive); with HL-60, 27 µM (inactive); in the test with MDA-MB-435, > 100 µM (inactive); in the test with MDA-N it was 66.5 µM (inactive); in the test on SK-MEL-5, 34.2 µM (inactive). Moreover, the GI50 in the test with T47D is 18 µM (inactive); with Hs-578T, 74.8 µM (inactive); in the test on MDA-MB-231, 35 µM (inactive); in the test with SK-MEL-2, 58.7 µM (inactive); with SF-268, 61.2 µM (inactive); with OVCAR-3, 40.6 µM (inactive). In addition, the GI50 in the test on NCI-H522 was 52.4 µM (inactive); in the test on DU-145, 72.3 µM (inactive); with SNB-75, 21.3 µM (inactive); in the test on RPMI-8226 it was 29.2 µM (inactive); in the test with U-251, 37.3 µM (inactive); with PC-3 it was 30.1 µM (inactive). In addition, the GI50 in the test with ACHN was 82 µM (inactive).

Take `NCCCN(CCCCN(CCCN)Cc1ccc2ccccc2c1)Cc1ccc2ccccc2c1`: the GI50 is 2.43 µM (inactive) in the test with SW-620; 1.86 µM (inactive) with SK-OV-3; 3.76 µM (inactive) in the test on HL-60; 2.2 µM (inactive) in the test on MDA-MB-435; 1.88 µM (inactive) in the test with MDA-N; 1.92 µM (inactive) in the test with SK-MEL-5. Moreover, the GI50 in the test on T47D was 2.42 µM (inactive); in the test on Hs-578T it was 1.63 µM (inactive); in the test with MDA-MB-231 it was 3.18 µM (inactive); in the test on SF-268, 1.29 µM (inactive); in the test with DU-145 it was 2.22 µM (inactive); in the test on SNB-75, 1.5 µM (inactive). The GI50 in the test with RPMI-8226 is 2.74 µM (inactive); in the test on MCF7, 2.09 µM (inactive); in the test on U-251, 1.8 µM (inactive); with ACHN it was 1.9 µM (inactive).

As for `COc1ccc(/C=N/NS(=O)(=O)c2ccc(/C=C3\NC(=O)N(C)C3=O)cc2)cc1`, the GI50 in the test with SW-620 was > 100 µM (inactive); in the test with SK-OV-3, > 100 µM (inactive); with HL-60 it was 67 µM (inactive); in the test on MDA-MB-435, > 100 µM (inactive); with MDA-N, > 100 µM (inactive); with SK-MEL-5, > 100 µM (inactive). In addition, the GI50 is > 100 µM (inactive) in the test with T47D; 30.3 µM (inactive) in the test on Hs-578T; 38.8 µM (inactive) in the test with MDA-MB-231; > 100 µM (inactive) with SK-MEL-2; 37.8 µM (inactive) with SF-268; 40.6 µM (inactive) in the test with OVCAR-3. For the same compound, the GI50 with DU-145 is > 100 µM (inactive); with SNB-75, 45.6 µM (inactive); with RPMI-8226 it was > 100 µM (inactive); in the test with MCF7 it was 40.9 µM (inactive); in the test on U-251, > 100 µM (inactive); in the test with PC-3 it was 80.2 µM (inactive). Besides, in the test with ACHN, the GI50 is > 100 µM (inactive).

As for `Cc1cc2c(cc1-c1cc3c(cc1C)C(C(C)C)=C(O)C(=O)/C3=C\Nc1nc(-c3ccccc3)cs1)/C(=C/Nc1nc(-c3ccccc3)cs1)C(=O)C(O)=C2C(C)C`, the GI50 with SW-620 was 15.6 µM (inactive); in the test on SK-OV-3, 21.1 µM (inactive); in the test on HL-60 it was 25.7 µM (inactive); with MDA-MB-435, 16.9 µM (inactive); with MDA-N, 41.1 µM (inactive); in the test on SK-MEL-5, 16.7 µM (inactive). Moreover, the GI50 was 31.9 µM (inactive) in the test on T47D; 37.3 µM (inactive) in the test with Hs-578T; 10.8 µM (inactive) in the test with MDA-MB-231; 21 µM (inactive) with SK-MEL-2; 24.6 µM (inactive) in the test with SF-268; 15.3 µM (inactive) in the test on OVCAR-3. Moreover, the GI50 in the test with DU-145 is 23.7 µM (inactive); in the test with SNB-75, 35.4 µM (inactive); with RPMI-8226, 33.9 µM (inactive); in the test on MCF7 it was 18.1 µM (inactive); in the test with U-251, 14.4 µM (inactive); in the test on PC-3, 15.7 µM (inactive). In addition, in the test on ACHN, the GI50 was 14.9 µM (inactive).

Consider `CC1(C)C(=S)C(C)(C)C1=S`, for which the GI50 in the test on SW-620, in the test on SK-OV-3, with MDA-MB-435, in the test on MDA-N, in the test with SK-MEL-5 and in the test with T47D was > 100 µM (inactive) throughout. The GI50 in the test with Hs-578T, in the test with MDA-MB-231, in the test on SK-MEL-2, with SF-268, in the test with OVCAR-3 and in the test on DU-145 was > 100 µM (inactive) throughout. Moreover, the GI50 with SNB-75, with RPMI-8226, in the test on MCF7, in the test with U-251, in the test with PC-3 and in the test on ACHN was > 100 µM (inactive) each time.

On to `C=CCOC1OC(CS(=O)(=O)O)C(O)C(O)C1O` (configuration not stated), for which the GI50 with SW-620, in the test on SK-OV-3, in the test with HL-60, with MDA-MB-435, with MDA-N and with SK-MEL-5 was > 100 µM (inactive) throughout. For the same compound, the GI50 with T47D, with Hs-578T, in the test with MDA-MB-231, in the test with SK-MEL-2, in the test on OVCAR-3 and with DU-145 was > 100 µM (inactive) throughout. Further, the GI50 with SNB-75, with RPMI-8226, in the test with MCF7, in the test on U-251 and with PC-3 was > 100 µM (inactive) each time.
